ChEMBL document CHEMBL1144959, “Nonpeptide RGD antagonists: a novel class of mimetics, the 5,8-disubstituted 1-azabicyclo[5.2.0]nonan-2-one lactam” (Bioorg Med Chem Lett, 2003)

target: Integrin alpha-5/beta-1 (Homo sapiens, UniProt P05556+P08648); assay: Inhibition of fibronectin (GST-3Fn8-11) binding to recombinant soluble mini integrin alpha5-beta1; assay type: protein-complex assay
Sequence (P05556 21-798 limits assumed): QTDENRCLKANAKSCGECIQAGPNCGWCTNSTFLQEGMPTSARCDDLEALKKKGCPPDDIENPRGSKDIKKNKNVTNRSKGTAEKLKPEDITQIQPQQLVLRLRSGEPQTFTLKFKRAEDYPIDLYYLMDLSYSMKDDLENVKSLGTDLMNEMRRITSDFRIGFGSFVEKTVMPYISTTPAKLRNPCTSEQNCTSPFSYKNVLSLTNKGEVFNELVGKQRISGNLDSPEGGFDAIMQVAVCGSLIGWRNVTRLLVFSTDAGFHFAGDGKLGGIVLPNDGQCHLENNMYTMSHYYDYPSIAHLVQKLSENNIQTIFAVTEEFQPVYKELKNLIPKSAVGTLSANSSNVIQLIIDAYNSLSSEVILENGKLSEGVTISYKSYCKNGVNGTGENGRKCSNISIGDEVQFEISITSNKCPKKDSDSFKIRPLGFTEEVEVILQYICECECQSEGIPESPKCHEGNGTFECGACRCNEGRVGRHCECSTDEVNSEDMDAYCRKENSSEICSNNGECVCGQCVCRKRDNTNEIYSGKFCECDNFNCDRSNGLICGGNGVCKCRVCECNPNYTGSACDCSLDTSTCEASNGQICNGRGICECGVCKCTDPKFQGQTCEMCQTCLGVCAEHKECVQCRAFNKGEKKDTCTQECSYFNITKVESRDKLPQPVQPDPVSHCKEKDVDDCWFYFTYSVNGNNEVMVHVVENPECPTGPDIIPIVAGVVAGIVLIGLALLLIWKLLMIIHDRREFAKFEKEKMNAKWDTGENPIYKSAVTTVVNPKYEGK
Sequence (P08648 42-894 limits assumed): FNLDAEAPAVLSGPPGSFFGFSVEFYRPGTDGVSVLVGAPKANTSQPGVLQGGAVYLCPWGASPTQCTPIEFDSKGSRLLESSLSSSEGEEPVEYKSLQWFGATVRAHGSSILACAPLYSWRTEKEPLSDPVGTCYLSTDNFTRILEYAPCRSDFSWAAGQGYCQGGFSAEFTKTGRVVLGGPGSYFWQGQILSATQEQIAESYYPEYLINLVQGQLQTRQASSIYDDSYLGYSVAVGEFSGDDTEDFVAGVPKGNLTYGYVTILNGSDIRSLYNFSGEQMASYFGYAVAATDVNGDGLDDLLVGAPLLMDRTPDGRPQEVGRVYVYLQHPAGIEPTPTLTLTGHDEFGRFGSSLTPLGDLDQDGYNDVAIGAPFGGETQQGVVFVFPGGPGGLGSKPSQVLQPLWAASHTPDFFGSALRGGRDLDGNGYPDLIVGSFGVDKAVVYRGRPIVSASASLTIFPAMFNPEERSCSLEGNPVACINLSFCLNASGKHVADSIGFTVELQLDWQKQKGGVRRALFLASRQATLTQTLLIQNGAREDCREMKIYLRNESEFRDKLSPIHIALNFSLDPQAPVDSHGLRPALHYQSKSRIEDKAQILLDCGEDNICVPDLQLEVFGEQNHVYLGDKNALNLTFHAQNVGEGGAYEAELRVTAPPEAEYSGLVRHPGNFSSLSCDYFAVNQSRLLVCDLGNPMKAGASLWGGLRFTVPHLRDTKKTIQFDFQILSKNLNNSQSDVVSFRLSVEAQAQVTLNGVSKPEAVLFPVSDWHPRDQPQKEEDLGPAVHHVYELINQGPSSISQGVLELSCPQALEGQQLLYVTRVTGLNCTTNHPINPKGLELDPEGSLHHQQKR
Sequence (P08648 895-1049 limits assumed): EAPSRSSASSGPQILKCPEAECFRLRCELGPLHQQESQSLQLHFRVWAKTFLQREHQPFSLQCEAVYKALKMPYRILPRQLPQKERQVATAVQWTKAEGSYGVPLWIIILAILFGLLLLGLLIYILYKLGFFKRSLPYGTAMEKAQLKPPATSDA

IC50 | SMILES
65 µM | N=C(N)NCCCNC(=O)[C@H]1CCC(=O)N2C[C@H](CCC(=O)O)[C@H]2C1
3100 µM | N=C(N)NCCCNC(=O)[C@@H]1CCC(=O)N2C[C@H](CCC(=O)O)[C@H]2C1
2.2 µM | NC(N)=NCCC[C@H](N)C(=O)NCC(=O)N[C@@H](CC(=O)O)C(=O)N[C@@H](CO)C(=O)O
1300 µM | N=C(N)NCCCNC(=O)C1CCC(=O)N2CC(CCC(=O)O)C2C1 (centres undefined)
